Molecules are shown by their SMILES.

Chain of human HPK1 (MAP4K1) (Q92918 17-274): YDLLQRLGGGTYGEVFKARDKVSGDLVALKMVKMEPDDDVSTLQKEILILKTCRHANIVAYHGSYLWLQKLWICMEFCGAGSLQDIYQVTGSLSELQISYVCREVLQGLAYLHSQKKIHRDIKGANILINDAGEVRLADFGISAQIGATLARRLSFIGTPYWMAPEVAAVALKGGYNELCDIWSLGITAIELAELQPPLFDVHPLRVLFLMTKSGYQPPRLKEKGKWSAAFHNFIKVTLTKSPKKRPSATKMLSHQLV

In the assay the target is human HPK1 (MAP4K1) (Homo sapiens (Human), UniProt Q92918). The experiment in a line: HPK1 IC50 Assay. Format: biochemical. The note with it: recombinant HPK1 kinase domain 0.15 nM, synthetic peptide substrate STK S1, 3 hours at 25° C., time-resolved fluorescence energy transfer; geometric mean of multiple experiments. As for the experimental part:
The enzymatic activity of human HPK1 (MAP4K1) was monitored in a biochemical assay in the presence or absence of compounds and using a synthetic peptide substrate. An increase in phosphorylation of the peptide by HPK1 was indicative of its kinase activity.
Recombinant HPK1 kinase domain produced via baculovirus infection of insect cells was obtained from Proteros (Proteros Biostructures #PR-0322) and was pre-activated in the presence of 2 mM ATP (Sigma-Aldrich, cat #GE27-2056-01) and 2 mM magnesium chloride for 16 hours at 4° C. The protein reaction mixture was then loaded to a desalting column (Thermo Fisher Scientific, Cat #89889) to remove excess ATP. HPK1 was eluted with buffer containing 20 mM Tris (2-Amino-2-(hydroxymethyl)propane-1,3-diol) pH 8.0, 150 mM NaCl, 2 mM dithiothreitol and 5% glycerol, and was frozen at −80° C. for later use. HPK1 dual phosphorylation was confirmed by mass spectrometry.
Ten nanoliters of test compounds dissolved in DMSO at various concentrations were dispensed into a 384-well ProxiPlate (PerkinElmer #6008289). Five microliters of a solution of recombinant HPK1 diluted in HPK1 kinase assay buffer (50 mM BES [N,N-Bis(2-hydroxyethyl)-2-aminoethanesulfonic acid], pH 7.0; 10 mM magnesium chloride; 0.01% Triton X-100; 1 mM dithiothreitol; 0.01% bovine serum albumin; 0.1 mM sodium orthovanadate) was added to the compound-containing plate and was incubated for 15 minutes at 25° C. Five microliters of a mixture of ATP (Sigma-Aldrich #A6559) and peptide substrate STK Si (Cisbio #61ST1BLC) diluted in HPK1 kinase assay buffer was then added to start the reaction. Final concentrations were 0.15 nM for HPK1, […], and 1 […]. The reaction mixture was incubated at 25° C. for 3 hours and was stopped with the addition of 10 μl of an EDTA (Ethylenediaminetetraacetic acid)-containing detection buffer (Cisbio #62SDBRDF) supplemented with Europium cryptate-labeled anti-phospho-serine/threonine antibodies (Cisbio #62ST1PEJ) and XL665-labeled streptavidin (Cisbio #610SAXLG). The mixture was incubated for 16 hours at room temperature and peptide phosphorylation was measured by time-resolved fluorescence energy transfer (665 nm/620 nm) on an Envision plate reader (PerkinElmer).
Data in Table 1 were normalized based on positive (staurosporine) and negative (DMSO) controls. Least squares curve fittings were performed using a four-parameter variable slope nonlinear regression model. IC50 is defined as the concentration of compound required to inhibit 50% of maximum phosphorylation. IC50 values from multiple experiments were averaged by geometric mean and the standard deviation was calculated.
For orientation: IC50 means the concentration that inhibits the measured activity by half. As for `Cc1c(-c2cc3c(cc2F)NC(=O)/C3=C\c2cc3ncccc3[nH]2)cnc2c1NCCO2` [Compound C44, (Z)-3-((1H-pyrrolo[3,2-b]pyridin-2-yl)methylene)-6-fluoro-5-(8-methyl-2,3-dihydro-1H-pyrido[2,3-b][1,4]oxazin-7-yl)indolin-2-one], the IC50 turned out to be 0.05 nM.
For `Cc1c(-c2cc(F)c3c(c2)/C(=C/c2cc4ccncc4[nH]2)C(=O)N3)cnc2c1NCCO2` [Compound C45, (Z)-3-((1H-pyrrolo[2,3-c]pyridin-2-yl)methylene)-7-fluoro-5-(8-methyl-2,3-dihydro-1H-pyrido[2,3-b][1,4]oxazin-7-yl)indolin-2-one], the IC50 was 0.17 nM.
As for `Cc1c(-c2cc(F)c3c(c2)/C(=C/c2cc4ncccc4[nH]2)C(=O)N3)cnc2c1NCCO2` [Compound C46, (Z)-3-((1H-pyrrolo[3,2-b]pyridin-2-yl)methylene)-7-fluoro-5-(8-methyl-2,3-dihydro-1H-pyrido[2,3-b][1,4]oxazin-7-yl)indolin-2-one], the figure is 0.05 nM; as for `Cc1c(-c2cnc3c(c2)/C(=C/c2cc4cnccc4[nH]2)C(=O)N3)cnc2c1NCCO2` [Compound C47, (Z)-3-((1H-pyrrolo[3,2-c]pyridin-2-yl)methylene)-5-(8-methyl-2,3-dihydro-1H-pyrido[2,3-b][1,4]oxazin-7-yl)-1,3-dihydro-2H-pyrrolo[2,3-b]pyridin-2-one], 1.13 nM; as for `Cc1c(-c2cc3c(cc2Cl)NC(=O)/C3=C\c2cc3cnccc3[nH]2)cnc2c1NCCO2` [Compound C48, (Z)-3-((1H-pyrrolo[3,2-c]pyridin-2-yl)methylene)-6-chloro-5-(8-methyl-2,3-dihydro-1H-pyrido[2,3-b][1,4]oxazin-7-yl)indolin-2-one], 0.16 nM.
The same measure for `Cc1c(-c2cc3c(cc2F)NC(=O)/C3=C\c2cc3cnccc3[nH]2)cnc2c1NCCO2` [Compound C49, (Z)-3-((1H-pyrrolo[3,2-c]pyridin-2-yl)methylene)-6-fluoro-5-(8-methyl-2,3-dihydro-1H-pyrido[2,3-b][1,4]oxazin-7-yl)indolin-2-one]: 0.16 nM.
The same measure for `Cc1c(-c2cc3c(cc2Cl)NC(=O)/C3=C\c2cc3ccccc3[nH]2)cnc2c1NCCO2` [Compound C50, (Z)-3-((1H-indol-2-yl)methylene)-6-chloro-5-(8-methyl-2,3-dihydro-1H-pyrido[2,3-b][1,4]oxazin-7-yl)indolin-2-one]: 0.19 nM; for `Cc1c(-c2cc3c(cc2F)NC(=O)/C3=C\c2cc3ccccc3[nH]2)cnc2c1NCCO2` [Compound C51, (Z)-3-((1H-indol-2-yl)methylene)-6-fluoro-5-(8-methyl-2,3-dihydro-1H-pyrido[2,3-b][1,4]oxazin-7-yl)indolin-2-one]: 0.16 nM.
For `Cc1c(-c2cc(F)c3c(c2)/C(=C/c2cc4ccccc4[nH]2)C(=O)N3)cnc2c1NCCO2` [Compound C53, (Z)-3-((1H-indol-2-yl)methylene)-7-fluoro-5-(8-methyl-2,3-dihydro-1H-pyrido[2,3-b][1,4]oxazin-7-yl)indolin-2-one], the IC50 amounted to 0.16 nM.
The same measure for `Cc1c(-c2cc(F)c3c(c2C)/C(=C/c2cc4cnccc4[nH]2)C(=O)N3)cnc2c1NCCO2` [Compound C54, (Z)-3-((1H-pyrrolo[3,2-c]pyridin-2-yl)methylene)-7-fluoro-4-methyl-5-(8-methyl-2,3-dihydro-1H-pyrido[2,3-b][1,4]oxazin-7-yl)indolin-2-one]: 0.27 nM.
The same measure for `Cc1c(-c2cnc3c(c2)/C(=C/c2cc4ccccc4[nH]2)C(=O)N3)cnc2c1NCCO2` [Compound C55, (Z)-3-((1H-indol-2-yl)methylene)-5-(8-methyl-2,3-dihydro-1H-pyrido[2,3-b][1,4]oxazin-7-yl)-1,3-dihydro-2H-pyrrolo[2,3-b]pyridin-2-one]: 1.24 nM; for `Cc1c(-c2cc(F)c3c(c2C)/C(=C/c2cc4ccccc4[nH]2)C(=O)N3)cnc2c1NCCO2` [Compound C56, (Z)-3-((1H-indol-2-yl)methylene)-7-fluoro-4-methyl-5-(8-methyl-2,3-dihydro-1H-pyrido[2,3-b][1,4]oxazin-7-yl)indolin-2-one]: 0.51 nM; for `Cc1c(-c2ccc3c(c2)/C(=C/c2cc4ncccc4[nH]2)C(=O)N3)cnc2c1NCCO2` [Compound C57, (Z)-3-((1H-pyrrolo[3,2-b]pyridin-2-yl)methylene)-5-(8-methyl-2,3-dihydro-1H-pyrido[2,3-b][1,4]oxazin-7-yl)indolin-2-one]: 0.05 nM.
On to `Cc1c(-c2ccc3c(c2)/C(=C/c2cc4ccncc4[nH]2)C(=O)N3)cnc2c1NCCO2` [Compound C58, (Z)-3-((1H-pyrrolo[2,3-c]pyridin-2-yl)methylene)-5-(8-methyl-2,3-dihydro-1H-pyrido[2,3-b][1,4]oxazin-7-yl)indolin-2-one], for which the IC50 stood at 0.11 nM.
The same measure for `Cc1c(-c2ccc3c(c2)/C(=C/c2nc4ccccc4[nH]2)C(=O)N3)cnc2c1NCCO2` [Compound C59, (Z)-3-((1H-benzo[d]imidazol-2-yl)methylene)-5-(8-methyl-2,3-dihydro-1H-pyrido[2,3-b][1,4]oxazin-7-yl)indolin-2-one]: 0.28 nM.
The same measure for `Cc1c(-c2ccc3c(c2)/C(=C/c2cc4cnccc4[nH]2)C(=O)N3)cnc2c1NCCO2` [Compound C60, (Z)-3-((1H-pyrrolo[3,2-c]pyridin-2-yl)methylene)-5-(8-methyl-2,3-dihydro-1H-pyrido[2,3-b][1,4]oxazin-7-yl)indolin-2-one]: 0.06 nM.
With `Cc1c(-c2ccc3c(c2)/C(=C/c2cc4cccnc4[nH]2)C(=O)N3)cnc2c1NCCO2` [Compound C61, (Z)-3-((1H-pyrrolo[2,3-b]pyridin-2-yl)methylene)-5-(8-methyl-2,3-dihydro-1H-pyrido[2,3-b][1,4]oxazin-7-yl)indolin-2-one], the IC50 amounted to 1.1 nM.
In the case of `Cc1c(-c2ccc3c(c2)/C(=C/c2cc4ccccc4[nH]2)C(=O)N3)cnc2c1NCCO2` [Compound C62, (Z)-3-((1H-indol-2-yl)methylene)-5-(8-methyl-2,3-dihydro-1H-pyrido[2,3-b][1,4]oxazin-7-yl)indolin-2-one], the 50% inhibitory concentration (IC50) is 0.05 nM.
As for `Cc1c(-c2cc(F)c3c(c2C)/C(=C/c2cc4ccncc4[nH]2)C(=O)N3)cnc2c1NCCO2` [Compound C63, (Z)-3-((1H-pyrrolo[2,3-c]pyridin-2-yl)methylene)-7-fluoro-4-methyl-5-(8-methyl-2,3-dihydro-1H-pyrido[2,3-b][1,4]oxazin-7-yl)indolin-2-one], the figure is 0.41 nM.
The same measure for `Cc1c(-c2cc(F)c3c(c2C)/C(=C/c2cc4ncccc4[nH]2)C(=O)N3)cnc2c1NCCO2` [Compound C64, (Z)-3-((1H-pyrrolo[3,2-b]pyridin-2-yl)methylene)-7-fluoro-4-methyl-5-(8-methyl-2,3-dihydro-1H-pyrido[2,3-b][1,4]oxazin-7-yl)indolin-2-one]: 0.31 nM; for `Cc1c(-c2cc(F)c3c(c2C)/C(=C/c2cn[nH]c2)C(=O)N3)cnc2c1NCCO2` [Compound C65, (Z)-3-((1H-pyrazol-4-yl)methylene)-7-fluoro-4-methyl-5-(8-methyl-2,3-dihydro-1H-pyrido[2,3-b][1,4]oxazin-7-yl)indolin-2-one]: 1.03 nM.
For `Cc1c(-c2cc(Cl)c3c(c2)/C(=C/c2cn[nH]c2)C(=O)N3)cnc2c1NCCO2` [Compound C66, (Z)-3-((1H-pyrazol-4-yl)methylene)-7-chloro-5-(8-methyl-2,3-dihydro-1H-pyrido[2,3-b][1,4]oxazin-7-yl)indolin-2-one], the IC50 was 6.9 nM.
The same measure for `Cc1cc(-c2cnc3c(c2C)NCCO3)cc2c1NC(=O)/C2=C\c1cn[nH]c1` [Compound C67, (Z)-3-((1H-pyrazol-4-yl)methylene)-7-methyl-5-(8-methyl-2,3-dihydro-1H-pyrido[2,3-b][1,4]oxazin-7-yl)indolin-2-one]: 4.33 nM; for `Cc1n[nH]cc1/C=C1\C(=O)Nc2ccc(-c3cnc4c(c3C)NCCO4)cc21` [Compound C68, (Z)-3-((3-methyl-H-pyrazol-4-yl)methylene)-5-(8-methyl-2,3-dihydro-1H-pyrido[2,3-b][1,4]oxazin-7-yl)indolin-2-one]: 0.32 nM.
For `Cc1c(-c2ccc3c(c2)/C(=C/c2cn[nH]c2)C(=O)N3)cnc2c1NCCO2` [Compound C69, (Z)-3-((1H-pyrazol-4-yl)methylene)-5-(8-methyl-2,3-dihydro-1H-pyrido[2,3-b][1,4]oxazin-7-yl)indolin-2-one], the IC50 is 0.26 nM.

These data come from US11453681B2, “Substituted eneoxindoles and uses thereof” (Gilead Sciences, Inc., priority 2019, dated 2022).
